Reference: patent US20090209620A1, “Direct Reversal Of The Suppressive Function Of CD4+Regulatory T Cells Via Toll-Like Receptor 8 Signaling” (priority 2005, published 2009)
In the oligonucleotide strings, read from the 5' end, every base follows the letter of its sugar. An asterisk marks phosphorothioate; unmarked linkages are phosphodiester. Other units and linkages are bracketed, terminal groups are in braces. A string of capitals states the bases alone. d = 2'-deoxy (DNA)

Tests used:
[1] = test system: CD4+ Treg cells (Treg102, Treg164); experiment: Proliferation assay without DCs: Treg suppression of naive CD4+ T cell proliferation, anti-CD3-coated plates; assay type: cell-based, human; conditions: absence of DCs; for reversal of Treg cell-mediated suppression of naive CD4+ T cell proliferation: anti-CD3-coated plates, oligonucleotides 3 ug/ml in medium
Description: Establishing Treg cell lines and purifying natural CD4^+ CD25^+ Treg cells CD4^+ Treg clones were established from CD4^+ tumor-infiltrating lymphocytes (TIL102 and TIL164) and maintained in RPMI 1640 medium containing 10% human AB serum and recombinant IL-2 (300 IU/ml) using methods well known in the art (See, e.g., H. Y. Wang et al., Immunity 20, 107-118 (2004)). Treg clones derived from TIL102 or TIL164 cells were pooled and designated Treg102 or Treg164. Naturally occurring CD4^+ CD25^+ Treg cells were obtained by sorting CD4^+ T cell populations from fresh PBMCs after staining with anti-CD4 and anti-CD25 antibodies. To obtain optimal expansion, the OKT3 expansion method was performed using methods well known in the art (See, e.g., H. Y. Wang et al., Immunity 20, 107-118 (2004)). T cell clones were maintained at a low IL-2 concentration (300 IU/ml). Melanoma cell lines and EBV-transformed B-cell lines used in this study were cultured in RPMI 1640 medium containing 10% FCS. Human embryonic kidney (HEK) 293 and Epstein-Barr virus (EBV)-transformed B cell lines were maintained in RPMI 1640 with 10% fetal calf serum (FCS).
B. Proliferation assay without DCs: 1×10^5 näive CD4 T cells were cultured with regulatory T cells at different ratios (1: 0.2, 1:0.1 and 1:0.05) in anti-CD3 mAb-coated (2 ug/ml) 96-well plates in the presence or absence of the following TLR ligands or cytokines: CpG-A (3 ug/ml), CpG-B (3 ug/ml), LPS (100 ng/ml), TNF.-α (20 ng/ml), IFN-α (100 ng/ml), or IL-6 (100 ng/ml). After 56 h of culture, [3H]thymidine was added at a final concentration of 1 uCi/well, followed by an additional 16 h of culture. The incorporation of [^3H]thymidine was measured with a liquid scintillation counter.
Näive CD4^+ T cell proliferation experiments were performed similar to those in FIG. 1A, but in the absence of DCs. […] The reversal effect of CpG-A (SEQ ID NO: 1) contrasts with the failure of CpG-B (SEQ ID NO: 2), LPS, TNF-α, IL-6 or IFN-α to block the suppressive activity of CD4^+ Treg cells against naive CD4^+ T cells (FIG. 1B).
To further define the CpG-A (SEQ ID NO: 1) sequences responsible for the observed reversal effect, CpG-NG (SEQ ID NO: 5) and Poly-G10 (SEQ ID NO: 6), were tested for their ability to reverse the suppressive function of Treg cells. Naive CD4^+ T cells were mixed with CD4^+ Treg cells in anti-CD3 antibody-coated 96-wells with 200 μl of medium containing CpG-NG (SEQ ID NO: 5), CpG-A (SEQ ID NO: 1) or Poly-G10 (SEQ ID NO: 6). The proliferation assay was conducted as described in FIG. 1. […] For the experiments shown in FIG. 2B, naive CD4^+ T cells were mixed with CD4^+ Treg cells in anti-CD3 antibody-coated 96-wells with 200 μl of medium containing Poly-A10 (SEQ ID NO: 7), Poly-T10 (SEQ ID NO: 9) or Poly-C10 (SEQ ID NO: 8), while the Poly-G10 (SEQ ID NO: 6) oligonucleotides served as a positive control.
A series of oligonucleotides with decreasing numbers of guanosine nucleosides was constructed to determine the minimal number required for the reversal effect. For the experiments in FIG. 2C, CD4^+ T cells were mixed with CD4^+ Treg cells in anti-CD3 antibody-coated 96-wells containing medium with protected phosphorothioate linked guanosine nucleoside containing oligonucleotides of various lengths, while the unprotected five guanosines (SEQ ID NO: 10) served as a control.

[2] = test system: Treg102 cells; experiment: Proliferation and cytotoxicity of CFSE-labeled Treg cells (FACS); assay type: cell-based, human; conditions: 3 days
Procedure: The expression of CD4, CD25 and GITR on Treg cells was determined by FACS analysis after staining with specific antibodies (purchased from R&D Systems and BD Biosciences). To isolate naturally occurring CD4^+ CD25^+ Treg cells, CD4^+ T cells were stained with anti-CD4 and anti-CD25 antibodies conjugated to either PE or FITC. After washing, the cells were sorted by FACSARIA into CD4^+ CD25^+ and CD4^+ CD25^− T cell populations. For experiments with carboxyfluorescein diacetate succinimidyl ester (CFSE)-labeled cells, näive CD4^+ T cells or Treg cells ([…]) were stained with CFSE (4.5 uM) from Molecular Probes at 37° C. for 15 min. After several washes, the labeled cells were cultured in RPMI 1640 containing 10% human AB serum and IL-2 (300 IU/ml). To determine suppression of cell division by Treg cells, unlabeled Treg cells were added to CFSE-labeled näive T cells at an 1:1 ratio in 24-well plates precoated with OKT3 (2 ug/ml) in the presence or absence of CpG-A or Poly-G2 (3 ug/ml). After 3 days in culture, the cells were analyzed by FACS gating on the CFSE-labeled cells.
FIG. 5. […] After 3 days of culture, the proliferative profile was determined by FACS analysis. […]

Substance	effect on proliferation of naive CD4+ T cells or Treg cells alone [1]	reversal of Treg cell-mediated suppression of naive CD4+ T cell proliferation [1]	number of Treg cells (cytotoxicity) ([2]; presence or absence of CpG-A 3 μg/ml)	proliferation of CFSE-labeled Treg cells ([2]; with naive T cells, OKT3, IL-2, CpG-A 3 μg/ml)
G* GGGGACGATCGTCG* G*G*G*G*G [CpG-A]	lacked any effect	restored the proliferation of naive CD4^+ T cells to near normal levels	did not change	do not proliferate
Poly-G10: guanosine oligonucleotide with protected phosphorothioate backbone (DNA dG*dG*dG*dG*dG*dG*dG*dG*dG*dG)		retained or even enhanced		
